According to patent publication US6994551B2, “Stable self-etching primer and adhesive bonding resin compositions, systems, and methods” (Bisco, Inc., priority 2002, dated 2006):
Like-named read-outs stand apart in the source and are kept apart here.

Protocol: Several experiments were performed to evaluate the solubility of Bis-MEP in various solvent systems.

appearance of mixture (0.67 weight percent in water): did not dissolve
appearance of mixture (2 weight percent mixture in water): did not dissolve
appearance of mixture (10 weight percent in water (no ethanol)): not homogeneous
appearance of mixture (14.72 weight percent in ethanol 34.40 / water 50.88 weight percent, room temperature): clear solution
appearance of mixture (20 weight percent in water (no ethanol)): not homogeneous
Compound: C=C(C)C(=O)OCCOP(=O)(O)OCCOC(=O)C(=C)C [Bis-MEP, Bis-[2-(methacryloyloxy)ethyl]phosphate]
